Three compounds from ChEMBL document CHEMBL4627372, “Spiroseoflosterol, a Rearranged Ergostane-Steroid from the Fruiting Bodies of Butyriboletus roseoflavus” (J Nat Prod, 2020) can be followed below.

Calls of active or inactive are those of the source. No cut-off for these calls is given here.

For data set [1], the system named is L02. The experiment in a line: Cytotoxicity against human LO2 cells after 48 hrs by MTT assay. The data set is classed as cell-based. The conditions noted are these: L02, 48 h. For orientation: Tetrazolium dyes change colour on reduction, which living cells bring about.
In data set [2] the test system is HepG2. Description: Cytotoxicity against human HepG2 cells after 48 hrs by MTT assay. Type of data set: functional, cell-based. The conditions noted are these: HepG2, 48 h.
Data set [3] in a line: Selectivity ratio of IC50 for human LO2 cells to IC50 for human HepG2 cells. Type of data set: toxicity. The conditions noted are these: LO2 cells versus HepG2 cells, read-out: Ratio IC50.
The nature of data set [4]: Cytotoxicity against human Huh7S1 cells after 48 hrs by MTT assay. The data set is classed as functional, cell-based.
Data set [5] is described as follows: Selectivity ratio of IC50 for human LO2 cells to IC50 for human Huh7S1 cells. Type of data set: toxicity. The conditions noted are these: LO2 cells versus Huh7S1 cells, read-out: Ratio IC50.
Data set [6] concerns HepG2. The experiment in a line: Cytotoxicity against human HepG2 cells at 10 uM after 48 hrs by MTT assay. Type of data set: functional, cell-based.

Take `CNC(=O)c1cc(Oc2ccc(NC(=O)Nc3ccc(Cl)c(C(F)(F)F)c3)cc2)ccn1` [SORAFENIB]: the results for the IC50 in data set [1] and in data set [2] were 9.1 µM and 5.5 µM, respectively. For the same compound, in data set [3], the selectivity ratio is 1.6.
Turning to `CC(C)[C@@H](C)/C=C/[C@@H](C)[C@H]1CC[C@H]2C(=O)[C@@]3(CC[C@]12C)[C@@H](O)C[C@H]1C[C@@H](O)CC[C@@]13C`, the values for the IC50 in data set [1], in data set [2] and in data set [4] were 22.8 µM, 9.1 µM and 6.2 µM, respectively. Besides, the figures for the selectivity ratio in data set [3] and in data set [5] were 2.5 and 3.7, respectively.
As for `CC(C)[C@@H](C)/C=C/[C@@H](C)[C@H]1CCC2=C3C=C[C@H]4C[C@@H](O)CC[C@]4(C)[C@H]3CC[C@@]21C`, in data set [6], the outcome was inactive.
